# From ChEMBL document CHEMBL1131661, “Use of the Suzuki reaction for the synthesis of aryl-substituted heterocycles as corticotropin-releasing hormone (CRH) antagonists” (Bioorg Med Chem Lett, 1999)
# Target: T1, Corticotropin-releasing factor receptor 1 (Homo sapiens, UniProt P34998)
# T1 sequence (P34998 whole entry): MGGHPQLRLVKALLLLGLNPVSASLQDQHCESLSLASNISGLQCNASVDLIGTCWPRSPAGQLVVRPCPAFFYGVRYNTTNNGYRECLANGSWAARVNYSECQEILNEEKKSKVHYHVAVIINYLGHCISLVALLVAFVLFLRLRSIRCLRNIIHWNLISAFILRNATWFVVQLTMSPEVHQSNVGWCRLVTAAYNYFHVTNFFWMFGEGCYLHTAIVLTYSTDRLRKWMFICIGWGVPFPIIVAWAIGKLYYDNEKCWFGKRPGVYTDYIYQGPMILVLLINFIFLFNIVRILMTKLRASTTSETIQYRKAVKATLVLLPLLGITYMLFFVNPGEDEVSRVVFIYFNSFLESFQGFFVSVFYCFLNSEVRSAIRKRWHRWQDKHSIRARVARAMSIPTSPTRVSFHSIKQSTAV
# Assay: Antagonistic activity for Corticotropin releasing factor receptor 1
# Type: functional
row,Compound,Ki [nM]
1,CCN(c1nc(C)nc(-c2ccccc2C(F)(F)F)n1)c1ccc(C(C)C)cc1Br,5.5
2,COc1cc(Br)c(-n2c(=O)n(C)c3c(-c4ccccc4C(F)(F)F)nc(C)nc32)c(OC)c1,95.5
3,CCN(CC1CC1)c1nc(C)nc(Nc2c(Cl)cc(Cl)cc2Cl)c1C,2
4,CSc1nn(-c2c(Cl)cc(Cl)cc2Cl)c2nc(C)nc(-c3ccccc3C(F)(F)F)c12,33.4
5,Cc1cc(C)c(-n2nnc3c(-c4ccccc4C(F)(F)F)nc(C)nc32)c(C)c1,168
6,Cc1cc(C)c(-n2c(C)c(C)c3c(-c4ccccc4C(F)(F)F)nc(C)nc32)c(C)c1,9.7
7,CCCCN(CC)c1nc(C)nc2c1nnn2-c1c(Br)cc(OC)cc1OC,3.5

# The next lines start with the values.
row,Ki [nM],Compound
1,23.1,COc1cc(Br)c(Nc2nc(C)nc(-c3ccccc3C(F)(F)F)c2[N+](=O)[O-])c(OC)c1
2,60.3,COc1cc(Br)c(Nc2nc(C)nc(-c3ccccc3C(F)(F)F)c2N)c(OC)c1
3,32.3,COc1cc(Br)c(-n2c(C)nc3c(-c4ccccc4C(F)(F)F)nc(C)nc32)c(OC)c1
4,202,COc1cc(Br)c(-n2c(=O)[nH]c3c(-c4ccccc4C(F)(F)F)nc(C)nc32)c(OC)c1
5,21.4,COc1cc(Br)c(-n2nnc3c(-c4ccccc4C(F)(F)F)nc(C)nc32)c(OC)c1
